Measurements reported in patent publication US20060160897A1, “Topical Use of Valproic Acid for the Prevention or Treatment of Skin Disorders” (priority 2003, published 2006).

How the values were obtained:
HaCaT cells = assay: BrdU incorporation assay; format: cell-based, human; conditions: VPA added day 0, assay day 2, FIG. 4
Method: BrdU incorporation assays: Cell proliferation was detected by labeling cells with BrdU. […] Cells were incubated for 1 hour in the culture medium and then fixed with 70% ethanol. The incorporated BrdU was detected by the indirect immunoperoxidase method (Amersham, Arlington Heights, Ill.). Briefly, the culture cells were first incubated for 1 hour with Biotin-Mouse Anti-BrdU antibody. After washing in TTBS buffer (20 mM Tris, 500 mM NaCl, 0.05% Tween-20, pH 7.5), the cells were further incubated with Biotinylated goat anti-mouse immunoglobulins for 10 min. Cells were then washed and incubated with enzyme (peroxidase) conjugate for 10 min at room temperature. […] The positive cells were counted on 10 randomly picked microscopic fields. HaCaT cells were plated in 35 mm diameter wells on day 0. […] The BrdU assay was carried out on day 2.

histone H4 acetylation [1] = assay: Immunohistochemistry of acetylated H4 after topical application to mouse skin; format: in vivo; conditions: athymic nude mice, VPA topically applied at 3% (w/w) vs placebo; FIGS. 8 and 9
Method: (§1) Cryostat skin sections of 3 μm thickness were fixed in acetone at room temperature for 10 min. Before staining with anti-acetylated H4 antibody (clone T25, see above) the tissue was blocked by preincubation with F(ab′)2 fragments derived from goat anti-mouse immunoglobulin (Cappel) ( 1/10000 dilution in 50 mM Tris buffered saline, TBS) for 30 min. After rinsing with TBS for 10 min, the sections were incubated with anti-acetylated H4 antibody (clone T25) ( 1/4000 dilution in TBS) at room temperature for 1 hour. Then, the specimens were incubated with the rabbit anti-mouse serum and treated with APAAP (alkaline phosphatase anti-alkaline phosphatase) immunocomplex as described above. The positive staining was developed in red color with naphthol-AS-BI phosphate as a substrate, and New Fuchsin (Dako) as a chromogen. Pictures were taken with a digital camera connected to a light microscopy apparatus.
(§2) Skin biopsies were frozen in liquid nitrogen immediately after excision. Immunohistochemistry was then performed on 3 μm sections as described in methods. Biopsies of skin topically treated with Placebo or VPA were processed in parallel, pictures were taken with a light microscopy apparatus connected to a digital camera under the same light intensity.

histone H4 acetylation [2] = assay: Western blot of acetylated histone H4 in keratinocytes; format: cell-based, human; conditions: HaCaT, 24 hours treatment; FIG. 7
Method: Western blot: HaCaT cells were seeded into 6-well culture dishes 24 hrs before treatment. […] Whole cell extracts were prepared by lysis of cells in RIPA buffer plus protease inhibitors for denaturing SDS gel electrophoresis on a 12% denaturing polyacrylamid gel. Acetylated histone H4 was detected by Western blot analysis using an anti-acetylated H4 antibody (clone T25; see patent application EP 02.021984.6) and as an equal loading control expression of β-actin was confirmed using an anti-actin antibody (Sigma, Cat. No. A5441).
Cells were plated in 6 well plates at day 0. Drugs were added on day 1, cells were lysed on day 2 with RIPA buffer plus protease inhibitors. 40 μg of total cell lysate were separated by 12.5% SDS PAGE and subjected to immunoblotting with the indicated antibodies.

mouse embryos = conditions: mice, when properly dosed; cited from earlier work
inflammatory cytokines = assay: Semiquantitative RT-PCR of cytokine mRNA, LPS stimulated keratinocytes; format: cell-based, human; conditions: HaCaT, 200 nM TSA or 5 mM VPA 4 hours, then LPS 100 ng/ml 24 hours, FIG. 12A
Method: Human immortalized keratinocytes (HaCaT cells) were seeded at a density of 2.5 million cells per ml into 75 cm^2 flasks. […] After 24 hours at 37° C. cells were lysed and total RNA was isolated using the RNeasy mini kit from Qiagen.
One microgram of total RNA was transcribed to cDNA by standard methods using reverse transcriptase and an oligo-dT primer (Invitrogen). For semiquantitative PCR, 2 μl of cDNA was amplified by PCR using specific primers. Primers for PCR were synthesized by MWG and are as follows: […]

IL-2 and TNF-α = IL-2 and TNF-α ELISA, supernatants of stimulated peripheral blood lymphocytes; format: cell-based, human
Method: Monocyte and macrophage depleted peripheral blood mononuclear cells were obtained from consenting adults via separation using Ficoll-Hypaque. The peripheral blood mononuclear cells (PBMC) fraction was washed and seeded in 9 cm petri dishes. After an incubation of 2 hours at 37° C. to remove most of the monocytes, macrophages, and B-cells, the non-adherent cells were collected and cultured in 175 cm^2 flasks for 2 days. Cells were harvested and adjusted to 3 million cells per ml. Aliquots of 500 μl were transferred to each well of 24-well flat bottom plates. Peripheral blood lymphocytes (PBL's) were treated with various concentrations of HDAC inhibitors as indicated. After a 2 hours incubation time at 37° C. cells were stimulated with phorbol 12-myristate 13-acetate (PMA)/ionomycin (Ion) or activated via T cell receptor (TCR/CD3) complex with 10 μg/ml anti-CD3 mAb (OKT3) and 2.5 μg/ml anti-CD28 mAb. After 24 hours at 37° C. the supernatant was removed and frozen for cytokine assays. Cell pellets were lysed and total RNA was isolated using the RNeasy mini kit from Qiagen.
To perform ELISAs, supernatants of treated and untreated PBL's were collected and IL-2 as well as TNF-α were measured using the Duo Set ELISA Development System (R&D Systems) as described by the manufacturer.

histone H4 acetylation [3] = assay: Immunohistochemistry of acetylated H4 after topical application to BCC lesions of patients; format: in vivo, human; conditions: VPA 3% (w/w) topically 16-20 hours before surgical excision vs placebo; FIG. 10
Method: as §1, §2

[4] = system: acetylated histones H3 and H4 and HDAC-2; assay: Western blot of peripheral blood cells from patients treated with VPA intravenously (Phase I/II study); format: in vivo, human; conditions: before, 6 h, 24 h, 48 h after start, FIG. 18
Method: Whole cell extracts were prepared by lysis of cells in RIPA buffer including protease inhibitors. Lysates were separated by SDS gel electrophoresis and transferred onto PVDF membranes. Acetylated histones H3 and H4 and the marker gene HDAC-2 were detected by western blot analysis using an anti-acetylated H3 antibody (Upstate, #06-942), an anti-acetylated H4 antibody (clon T25; patent application EP 02.021984.6), and an anti-HDAC-2 antibody (SCBT, SC-7899). As an equal loading control PVDF membranes were stained with Coomassie (FIG. 18).

[5] = vs untreated stimulated control
[6] = 1 mM, other experiments, PBLs stimulated with PMA/ION and CD3/CD28 mAbs, FIG. 16
[7] = PBLs, increasing concentrations two hours, CD3 and CD28 mAbs 24 hours, FIG. 15

For CCCC(CCC)C(=O)O [VPA, 2-propyl-pentanoic acid], the “BrdU positive cells (cell cycle arrest)” value (HaCaT cells) was “dose-dependent reduction of BrdU positive cells”, the “histone H4 acetylation in skin cells” value (histone H4 acetylation [1]) was “clear increase of histone H4 acetylation” and the “histone H4 acetylation (Western blot)” value (histone H4 acetylation [2]) was “induces histone H4 hyperacetylation in a dose dependent manner”. The teratogenicity (mouse embryos) was “teratogenic in the majority of mouse embryos”, the “IFN-γ mRNA transcript” value (inflammatory cytokines) was “significantly reduced” and the “IL-6 mRNA level” value (inflammatory cytokines; [5]) was “significant decrease”. The “TNF-α mRNA level” value (inflammatory cytokines; [5]) was “significant decrease”, the IL-2 secretion (IL-2 and TNF-α; 0.5 mM, PBLs, CD3/CD28, FIG. 15) was “only moderate effect” and the IL-2 secretion (IL-2 and TNF-α; 1 mM, PBLs, CD3/CD28, FIG. 15) was “only moderate effect”. For the same compound, the IL-2 secretion (IL-2 and TNF-α; [6]) was “significant decrease”, the TNF-α secretion (IL-2 and TNF-α; [6]) was “significant decrease” and the IL-2 secretion (IL-2 and TNF-α; 5 mM, PBLs, CD3/CD28, FIG. 15) was “significantly reduced”. For the same compound, the “IL-2 secretion, dose-response” value (IL-2 and TNF-α; [7]) was “dose-dependent inhibition”, the “TNF-α secretion, dose-response” value (IL-2 and TNF-α; [7]) was “dose-dependent inhibition” and the “histone H4 acetylation in BCC cells and normal skin cells of patients” value (histone H4 acetylation [3]) was “clear increase of histone H4 acetylation”. For the same compound, the “HDAC-2 protein in peripheral blood cells” value [4] was “down-regulation of the marker protein HDAC-2” and the “histone H3 and H4 acetylation in peripheral blood cells” value [4] was “Histone H3 and H4 hyperacetylation”.
